This assay deals with T1, human plasma Kallikrein (Homo sapiens, UniProt P03952).
T1 construct: purchased Stratech, UK
The assay is described as follows: Functional enzyme inhibition assay, fluorogenic substrate Z-PheArg-AMC. It counts as biochemical. The settings on record: for Ki: Ac-06-34-18(TMB)-NH2 series; for loss in potency / reduction in affinity compared to wildtype: vs Ac-06-34-18(TMB)-NH2. The procedure:
Peptides were dissolved as the TFA-salts in their powder form, and stock solutions were usually prepared in water. All solutions were centrifuged and filtered ([…] syringe filters) prior absorption measurement at 280 nm. […] For peptides containing non-natural amino acids with suspected chromophoric properties (i.e. NorHar, 4PhenylPro, 3PaI, 4PaI, Tic, 4GuanPhe, 4,4-BPAI, 3,3-DPA, 1NAI, 2NAI, 4BenzylPro, Ind) concentrations were determined by weighing the powder and dissolving the peptide in a defined quantity of water.

Here are results for 13 compounds from patent US11912794B2, “Modulation of structured polypeptide specificity” (BicycleRD Limited, priority 2011, dated 2024).

Structures are written as SMILES. pIC50, pKi: −log10 of the molar value. Like-named read-outs stand apart in the source and are kept apart here. Numbered stars: 1 amine (or outer) side, 2 acyl side, 3 side chain; on linkers, the order of the positions; unused ones are H or OH. Bridge positions count the residues as written; N and C are the ends. Square brackets hold non-standard residues; d marks the D form. Peptide text beside a SMILES is read from it. 1Nal = N[C@@H](Cc1cccc2ccccc12)C(=O)O; TBMB = c1c(C[*:1])cc(C[*:3])cc1C[*:2]; NMeR = CN[C@@H](CCCNC(=N)N)C(=O)O; 3Pal = N[C@@H](Cc1cccnc1)C(=O)O; 4Pal = N[C@@H](Cc1ccncc1)C(=O)O; Aze = O=C(O)[C@@H]1CCN1; Sar = CNCC(=O)O

T1 sequence (P03952 20-638): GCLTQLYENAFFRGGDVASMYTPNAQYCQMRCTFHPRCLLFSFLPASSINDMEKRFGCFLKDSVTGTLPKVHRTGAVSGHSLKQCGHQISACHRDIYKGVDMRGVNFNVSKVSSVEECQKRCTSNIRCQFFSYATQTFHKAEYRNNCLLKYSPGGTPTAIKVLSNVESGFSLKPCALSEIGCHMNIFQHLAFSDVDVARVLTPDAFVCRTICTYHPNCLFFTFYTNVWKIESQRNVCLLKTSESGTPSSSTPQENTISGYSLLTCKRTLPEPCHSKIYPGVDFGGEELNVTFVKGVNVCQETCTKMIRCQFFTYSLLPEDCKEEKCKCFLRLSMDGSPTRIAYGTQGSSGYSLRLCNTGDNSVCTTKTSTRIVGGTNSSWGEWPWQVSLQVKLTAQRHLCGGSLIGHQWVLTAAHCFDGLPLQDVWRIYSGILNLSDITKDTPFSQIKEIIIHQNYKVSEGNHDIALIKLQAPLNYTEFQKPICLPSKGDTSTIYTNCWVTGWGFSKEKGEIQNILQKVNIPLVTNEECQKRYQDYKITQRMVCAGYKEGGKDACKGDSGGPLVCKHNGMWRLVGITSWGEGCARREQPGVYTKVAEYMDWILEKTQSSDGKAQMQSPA

`CC(C)C[C@@H]1NC(=O)[C@H](CC(=O)O)NC(=O)[C@H](CCC(N)=O)NC(=O)[C@H](Cc2c[nH]cn2)NC(=O)[C@H]([C@@H](C)O)NC(=O)[C@@H]2CSCc3cc(cc(c3)CSC[C@@H](C(=O)N[C@@H](C)C(N)=O)NC1=O)CSC[C@H](NC(=O)[C@H](C)N)C(=O)N[C@@H](CCCNC(=N)N)C(=O)N[C@@H](Cc1c[nH]c3ccccc13)C(=O)N1CCC[C@H]1C(=O)N[C@@H](C)C(=O)N[C@@H](CCCNC(=N)N)C(=O)N2` [Peptide 06-34-02] (H-ACRWPARCTHQDLCA-NH2; linker 2-8-14 via TBMB) had a pIC50 of 9.80.
As to `CC(=O)N[C@H]1CSCc2cc3cc(c2)CSC[C@H](NC(=O)[C@H](CCCNC(=N)N)NC(=O)[C@H](Cc2ccncc2)NC(=O)[C@@H]2CCCN2C(=O)[C@H](Cc2ccccc2)NC(=O)[C@H](CO)NC1=O)C(=O)N[C@@H](CC(C)C)C(=O)N[C@@H](Cc1c[nH]cn1)C(=O)N[C@@H](CCC(N)=O)C(=O)N[C@@H](CC(=O)O)C(=O)N[C@@H](CC(C)C)C(=O)N[C@H](C(N)=O)CSC3` [Ac-(06-34-18) Phe2 4Pal4] (Ac-CSFP[4Pal]RCLHQDLC-NH2; linker 1-7-13 via TBMB), under “Ki (nM) (human kallikrein)”, the Ki came out at 2.2 nM.
Regarding `CC(C)C[C@@H]1NC(=O)[C@H](CC(=O)O)NC(=O)[C@H](CCC(N)=O)NC(=O)[C@H](Cc2c[nH]cn2)NC(=O)CN(C)C(=O)[C@@H]2CSCc3cc(cc(c3)CSC[C@H](NC(=O)[C@H](C)N)C(=O)N(C)CC(=O)N[C@@H](Cc3c[nH]c4ccccc34)C(=O)N3CCC[C@H]3C(=O)N[C@@H](C)C(=O)N[C@@H](CCCNC(=N)N)C(=O)N2)CSC[C@@H](C(=O)N[C@@H](C)C(N)=O)NC1=O` [06-34-03 - N-MeGly1,6, AC N-MeGWPARCN-MeGHQDLCA] (H-AC[Sar]WPARC[Sar]HQDLCA-NH2; linker 2-8-14 via TBMB; N-terminus and C-terminus assumed), the “potency against human plasma Kallikrein compared to parent” value is listed as “reduction in potency”.
Turning to `CC(C)C[C@@H]1NC(=O)[C@H](CC(=O)O)NC(=O)[C@H](CCC(N)=O)NC(=O)[C@H](Cc2c[nH]cn2)NC(=O)[C@H](C)NC(=O)[C@@H]2CSCc3cc(cc(c3)CSC[C@@H](C(=O)N[C@@H](C)C(N)=O)NC1=O)CSC[C@H](NC(=O)[C@H](C)N)C(=O)N[C@@H](C)C(=O)N[C@@H](Cc1c[nH]c3ccccc13)C(=O)N1CCC[C@H]1C(=O)N[C@@H](C)C(=O)N[C@@H](CCCNC(=N)N)C(=O)N2` [06-34-03 - Ala1,6] (H-ACAWPARCAHQDLCA-NH2; linker 2-8-14 via TBMB; N-terminus and C-terminus assumed), the “potency against human plasma Kallikrein compared to parent” value is listed as “retained full potency”.
Compound `CC(=O)N[C@H]1CSCc2cc3cc(c2)CSC[C@H](NC(=O)[C@H](CCCNC(=N)N)NC(=O)[C@H](Cc2ccc(O)cc2)NC(=O)[C@@H]2CCCN2C(=O)[C@H](Cc2cccnc2)NC(=O)[C@H](CO)NC1=O)C(=O)N[C@@H](CC(C)C)C(=O)N[C@@H](Cc1c[nH]cn1)C(=O)N[C@@H](CCC(N)=O)C(=O)N[C@@H](CC(=O)O)C(=O)N[C@@H](CC(C)C)C(=O)N[C@H](C(N)=O)CSC3` [Ac-(06-34-18) 3Pal2 Tyr4] (Ac-CS[3Pal]PYRCLHQDLC-NH2; linker 1-7-13 via TBMB) showed a negative logarithm of the Ki (pKi) (Ki, text b293, unit inferred) of 9.04.
For `CC(=O)N[C@H]1CSCc2cc3cc(c2)CSC[C@H](NC(=O)[C@H](CCCNC(=N)N)N(C)C(=O)[C@H](Cc2ccc(O)cc2)NC(=O)[C@@H]2CCN2C(=O)[C@H](Cc2ccccc2)NC(=O)[C@H](CO)NC1=O)C(=O)N[C@@H](CC(C)C)C(=O)N[C@@H](Cc1c[nH]cn1)C(=O)N[C@@H](CCC(N)=O)C(=O)N[C@@H](CC(=O)O)C(=O)N[C@@H](CC(C)C)C(=O)N[C@H](C(N)=O)CSC3` [Ac-(06-34-18) Phe2 Aze3Tyr4 NMeArg5] (Ac-CSF[Aze]Y[NMeR]CLHQDLC-NH2; linker 1-7-13 via TBMB), the Ki (read-out: Ki (nM) (human kallikrein)) is less than 1 nM.
For the compound `CC(=O)N[C@H]1CSCc2cc3cc(c2)CSC[C@H](NC(=O)[C@H](Cc2ccc(NC(=N)N)cc2)NC(=O)[C@H](C)NC(=O)[C@@H]2CCCN2C(=O)[C@H](Cc2c[nH]c4ccccc24)NC(=O)[C@H](CO)NC1=O)C(=O)N[C@@H](CC(C)C)C(=O)N[C@@H](Cc1c[nH]cn1)C(=O)N[C@@H](CCC(N)=O)C(=O)N[C@@H](CC(=O)O)C(=O)N[C@@H](CC(C)C)C(=O)N[C@H](C(N)=O)CSC3` [Ac-(06-34-18) 4GuanPhe5], the “loss in potency / reduction in affinity compared to wildtype” value (shortened to “loss in potency / reduction in affinity”) was 2 fold.
Still for that read-out and setting: then `CC(=O)N[C@H]1CSCc2cc3cc(c2)CSC[C@H](NC(=O)[C@@H](CCCNC(=N)N)NC(=O)[C@H](C)NC(=O)[C@@H]2CCCN2C(=O)[C@H](Cc2c[nH]c4ccccc24)NC(=O)[C@H](CO)NC1=O)C(=O)N[C@@H](CC(C)C)C(=O)N[C@@H](Cc1c[nH]cn1)C(=O)N[C@@H](CCC(N)=O)C(=O)N[C@@H](CC(=O)O)C(=O)N[C@@H](CC(C)C)C(=O)N[C@H](C(N)=O)CSC3` [Ac-(06-34-18) D-Arg5], with 300 fold.
The compound `CC(=O)N[C@H]1CSCc2cc3cc(c2)CSC[C@H](NC(=O)[C@H](CCCNC(=N)N)NC(=O)[C@H](Cc2cccc4ccccc24)NC(=O)[C@@H]2CCCN2C(=O)[C@H](Cc2ccccc2)NC(=O)[C@H](CO)NC1=O)C(=O)N[C@@H](CC(C)C)C(=O)N[C@@H](Cc1c[nH]cn1)C(=O)N[C@@H](CCC(N)=O)C(=O)N[C@@H](CC(=O)O)C(=O)N[C@@H](CC(C)C)C(=O)N[C@H](C(N)=O)CSC3` [Ac-(06-34-18) Phe2 1Nal4] (Ac-CSFP[1Nal]RCLHQDLC-NH2; linker 1-7-13 via TBMB) yielded an inhibition constant (Ki) (Ki (nM) (human kallikrein)) of 13.5 nM.
Consider `CC(=O)N[C@H]1CSCc2cc3cc(c2)CSC[C@H](NC(=O)[C@H](CCCNC(=N)N)NC(=O)[C@H](C)NC(=O)[C@@H]2CCCN2C(=O)[C@@H](Cc2c[nH]c4ccccc24)NC(=O)[C@H](CO)NC1=O)C(=O)N[C@@H](CC(C)C)C(=O)N[C@@H](Cc1c[nH]cn1)C(=O)N[C@@H](CCC(N)=O)C(=O)N[C@@H](CC(=O)O)C(=O)N[C@@H](CC(C)C)C(=O)N[C@H](C(N)=O)CSC3` [Ac-(06-34-18) D-Trp2], for which the “loss in potency / reduction in affinity” value worked out at 45000 fold.
`CN=C(NC)NCCC[C@@H]1NC(=O)[C@H](C)NC(=O)[C@@H]2CCCN2C(=O)[C@H](Cc2c[nH]c3ccccc23)NC(=O)[C@H](CO)NC(=O)[C@@H](NC(C)=O)CSCc2cc3cc(c2)CSC[C@H](NC1=O)C(=O)N[C@@H](CC(C)C)C(=O)N[C@@H](Cc1c[nH]cn1)C(=O)N[C@@H](CCC(N)=O)C(=O)N[C@@H](CC(=O)O)C(=O)N[C@@H](CC(C)C)C(=O)N[C@H](C(N)=O)CSC3` [Ac-(06-34-18) SDMA5] registered an inhibition constant Ki (Ki (nM) (human kallikrein)) of 1410 nM.
`CC(=O)N[C@H]1CSCc2cc3cc(c2)CSC[C@H](NC(=O)[C@H](CCCNC(=N)N)NC(=O)[C@H](Cc2ccc(O)cc2)NC(=O)[C@@H]2CCCN2C(=O)[C@H](Cc2ccncc2)NC(=O)[C@H](CO)NC1=O)C(=O)N[C@@H](CC(C)C)C(=O)N[C@@H](Cc1c[nH]cn1)C(=O)N[C@@H](CCC(N)=O)C(=O)N[C@@H](CC(=O)O)C(=O)N[C@@H](CC(C)C)C(=O)N[C@H](C(N)=O)CSC3` [Ac-(06-34-18) 4Pal2 Tyr4] (Ac-CS[4Pal]PYRCLHQDLC-NH2; linker 1-7-13 via TBMB) returned an inhibitory constant (Ki) (Ki (nM) (human kallikrein)) of 3.56 nM.
With `CC(=O)N[C@H]1CSCc2cc3cc(c2)CSC[C@H](NC(=O)[C@H](CCCNC(=N)N)NC(=O)[C@@H](C)NC(=O)[C@@H]2CCCN2C(=O)[C@H](Cc2c[nH]c4ccccc24)NC(=O)[C@H](CO)NC1=O)C(=O)N[C@@H](CC(C)C)C(=O)N[C@@H](Cc1c[nH]cn1)C(=O)N[C@@H](CCC(N)=O)C(=O)N[C@@H](CC(=O)O)C(=O)N[C@@H](CC(C)C)C(=O)N[C@H](C(N)=O)CSC3` [Ac-(06-34-18) D-Ala4], the “loss in potency / reduction in affinity” value worked out at 7000 fold.
